Structures are written as SMILES. Counter-ions that a name gives are not always drawn.

kinase domain of IRE1 alpha (His-tagged kinase dead construct KR, AA G547-L977, D688N), sequence (O75460 547-977 D688N): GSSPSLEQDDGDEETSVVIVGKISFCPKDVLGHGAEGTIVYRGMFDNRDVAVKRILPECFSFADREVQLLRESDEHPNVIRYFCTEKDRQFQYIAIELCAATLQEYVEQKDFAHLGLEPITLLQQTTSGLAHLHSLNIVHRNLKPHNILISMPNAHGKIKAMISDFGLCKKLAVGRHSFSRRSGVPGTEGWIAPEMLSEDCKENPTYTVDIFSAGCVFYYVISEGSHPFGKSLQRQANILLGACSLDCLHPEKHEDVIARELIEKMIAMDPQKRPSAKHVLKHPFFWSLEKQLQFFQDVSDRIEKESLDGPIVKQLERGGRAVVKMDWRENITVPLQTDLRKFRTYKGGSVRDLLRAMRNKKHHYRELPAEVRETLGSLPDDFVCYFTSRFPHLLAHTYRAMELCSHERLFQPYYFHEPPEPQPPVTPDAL

For this assay, the target named is kinase domain of IRE1 alpha (His-tagged kinase dead construct KR, AA G547-L977, D688N) (Homo sapiens (Human), UniProt O75460, D688N). In words: IRE1α TR-FRET competition binding assay. The conditions noted are these: competition with Kinase Tracer 236, 0.1 μM; one hour at room temperature. The procedure:
To determine the affinity of compound binding to the kinase domain of IRE1 alpha, a Time Resolved Fluorescence Resonance Energy Transfer (TR-FRET) competition assay was used. A His-tagged IRE1 alpha kinase dead construct containing the kinase and RNase domains (KR, AA G547-L977, D688N) was expressed in Sf9 insect cells. The purified protein (final concentration 0.006 μM micromolar) was pre-incubated with anti-His Europium labeled antibody (Life Technologies PV5596, final concentration 0.002 μM micromolar) for one hour at 4° C. in 1X TR-FRET Assay Buffer (50 mM HEPES, pH 7.5.10 mM MgCl2, 0.083 mM Brij 35, 1 mM DTT, and 0.1% bovine gamma globulin) prior to addition to test compounds. A fluorescent labeled probe based on an ATP competitive inhibitor (Kinase Tracer 236, Life Technologies PV5592) is added to a final concentration of 0.1 μM (micromolar). Reactions were carried out for one hour at room temperature in a final volume of 20 μL (microliter) in 384 well white ProxiPlates (Perkin Elmer 6008289). Binding of the tracer to the IRE1 protein alpha was detected in an Envision instrument (PerkinElmer) equipped with a TRF laser option and a LANCE/Delfia Dual/Bias D400/D630 mirror (Ex 347 nm, 1st Em 665 nm, 2nd Em 615 nm).
Exemplary compounds in Table A1 were tested in the IRE1α binding assays.
For orientation: In TR-FRET formats the signal depends on donor and acceptor labels being close together.
In turn, `O=S(=O)(CCC(F)(F)F)Nc1c(F)cc(Oc2ncccc2-c2ccnc(N[C@@H]3CNC[C@@H](F)C3)n2)c(F)c1F` [Compound 205, 3,3,3-trifluoro-N-(2,3,6-trifluoro-4-((3-(2-(((3S,5S)-5-fluoro-3-piperidyl)amino)pyrimidin-4-yl)-2-pyridyl)oxy)phenyl)propane-1-sulfonamide] gave an IC50 of 4.4 nM.
The molecule `O=S(=O)(Cc1ccccc1)Nc1c(F)cc(Oc2ncccc2-c2ccnc(N[C@H]3CNC[C@H](F)C3)n2)c(F)c1F` [Compound 193, 1-phenyl-N-(2,3,6-trifluoro-4-((3-(2-(((3R,5R)-5-fluoro-3-piperidyl)amino)pyrimidin-4-yl)-2-pyridyl)oxy)phenyl)methanesulfonamide] showed an IC50 of 33 nM.
`COCCS(=O)(=O)Nc1c(F)cc(Oc2ncccc2-c2ccnc(N[C@@H]3CNC[C@@H](F)C3)n2)c(F)c1F` [Compound 252, 2-Methoxy-N-(2,3,6-trifluoro-4-((3-(2-(((3S,5S)-5-fluoropiperidin-3-yl)amino)pyrimidin-4-yl)pyridin-2-yl)oxy)phenyl)ethane-1-sulfonamide] had an IC50 of 14 nM.
For `CC1(CF)CNCC(Nc2nccc(-c3cccnc3Oc3cc(F)c(NS(=O)(=O)Cc4ccccc4)c(F)c3F)n2)C1` (single isomer, unassigned) [Compound 294, 1-Phenyl-N-(2,3,6-trifluoro-4-((3-(2-((5-(fluoromethyl)-5-methylpiperidin-3-yl)amino)pyrimidin-4-yl)pyridin-2-yl)oxy)phenyl)methanesulfonamide], the IC50 was 0.59 nM.
To `C[C@@]1(F)CNC[C@@H](Nc2nccc(-c3cccnc3Oc3ccc(NS(=O)(=O)Cc4ccccc4)c(F)c3F)n2)C1` [Compound 174, N-(2,3-difluoro-4-((3-(2-(((3S,5S)-5-fluoro-5-methylpiperidin-3-yl)amino)pyrimidin-4-yl)pyridin-2-yl)oxy)phenyl)-1-phenylmethanesulfonamide] belongs 3.1 nM; to `O=S(=O)(Cc1ccc(F)c(Cl)c1)Nc1c(F)cc(Oc2ncccc2-c2ccnc(N[C@@H]3CNC[C@@H](F)C3)n2)c(F)c1F` [Compound 366, 1-(3-Chloro-4-fluoro-phenyl)-N-[2,3,6-trifluoro-4-[[3-[2-[[(3S,5S)-5-fluoro-3-piperidyl]amino]pyrimidin-4-yl]-2-pyridyl]oxy]phenyl]methanesulfonamide], 0.2 nM; to `COC1CNCC(Nc2nccc(-c3cccnc3Oc3cc(F)c(NS(=O)(=O)Cc4ccccc4)c(F)c3F)n2)C1` (single isomer, unassigned) [Compound 318, 1-Phenyl-N-(2,3,6-trifluoro-4-((3-(2-((5-methoxypiperidin-3-yl)amino)pyrimidin-4-yl)pyridin-2-yl)oxy)phenyl)methanesulfonamide], 0.3 nM.
In turn, `Cc1c(NS(=O)(=O)Cc2ccccc2)cccc1Oc1ncccc1-c1ccnc(N[C@H]2CCCNC2)n1` [Compound 140, (S)—N-(2-Methyl-3-((3-(2-(piperidin-3-ylamino)pyrimidin-4-yl)pyridin-2-yl)oxy)phenyl)-1-phenylmethanesulfonamide hydrochloride] displayed an IC50 of 26 nM.
For `CCN(C)S(=O)(=O)Nc1c(F)cc(Oc2ncccc2-c2ccnc(N[C@@H]3CNC[C@@H](F)C3)n2)c(F)c1F` [Compound 269, 4-(2-(4-((Ethyl(methyl)sulfamoyl)amino)-2,3,5-trifluoro-phenoxy)-3-pyridyl)-2-(((3S,5S)-5-fluoro-3-piperidyl)amino)pyrimidine] the value was 1.1 nM; for `C[C@@]1(F)CNC[C@@H](Nc2nccc(-c3cccnc3Oc3cc(F)c(NS(=O)(=O)CC4CC(F)(F)C4)c(F)c3F)n2)C1` [Compound 251, 1-(3,3-Difluorocyclobutyl)-N-(2,3,6-trifluoro-4-((3-(2-(((3S,5S)-5-fluoro-5-methylpiperidin-3-yl)amino)pyrimidin-4-yl)pyridin-2-yl)oxy)phenyl)methanesulfonamide], 2.8 nM; for `Cc1ccccc1CS(=O)(=O)Nc1c(F)cc(Oc2ncccc2-c2ccnc(N[C@@H]3CNC[C@@](C)(F)C3)n2)c(F)c1F` [Compound 290, 1-o-Tolyl-N-(2,3,6-trifluoro-4-((3-(2-(((3S,5S)-5-fluoro-5-methylpiperidin-3-yl)amino)pyrimidin-4-yl)pyridin-2-yl)oxy)phenyl)methanesulfonamide], 0.4 nM.
To `NC(=O)c1ccc(CS(=O)(=O)Nc2c(F)cc(Oc3ncccc3-c3ccnc(N[C@@H]4CNC[C@@H](F)C4)n3)c(F)c2F)c(F)c1` [Compound 361, 3-Fluoro-4-[[2,3,6-trifluoro-4-[[3-[2-[[(3S,5S)-5-fluoro-3-piperidyl]amino]pyrimidin-4-yl]-2-pyridyl]oxy]phenyl]sulfamoylmethyl]benzamide] belongs 0.3 nM; to `Cc1cc(NS(=O)(=O)C(C)c2ccccc2)c(F)c(F)c1Oc1ncccc1-c1ccnc(N[C@@H]2CNC[C@@H](F)C2)n1` (single isomer, unassigned) [Compound 314], 0.24 nM.
Regarding `C[C@@]1(F)CNC[C@@H](Nc2nccc(-c3cccnc3Oc3cc(F)c(NS(=O)(=O)Cc4ccccc4F)c(F)c3F)n2)C1` [Compound 275, 1-(2-Fluorophenyl)-N-(2,3,6-trifluoro-4-((3-(2-(((3S,5S)-5-fluoro-5-methylpiperidin-3-yl)amino)pyrimidin-4-yl)pyridin-2-yl)oxy)phenyl)methanesulfonamide], the IC50 turned out to be 0.23 nM.
For `Cc1cc(Oc2ncccc2-c2ccnc(N[C@H]3CCCNC3)n2)c(F)c(F)c1NS(=O)(=O)Cc1ccccc1` [Compound 160, (S)-N-(2,3-difluoro-6-methyl-4-((3-(2-(piperidin-3-ylamino)pyrimidin-4-yl)pyridin-2-yl)oxy)phenyl)-1-phenylmethanesulfonamide] the value was 5.4 nM; for `OC(CNc1cccc(Oc2ncccc2-c2ccnc(N[C@H]3CCCNC3)n2)c1F)C(F)(F)F` (single isomer, unassigned) [Compound 201], 210 nM.
To `Cc1ccccc1CS(=O)(=O)Nc1c(F)cc(Oc2ncccc2-c2ccnc(N[C@@H]3CNC[C@@H](F)C3)n2)c(F)c1F` [Compound 386, 1-o-Tolyl-N-(2,3,6-trifluoro-4-((3-(2-(((3S,5S)-5-fluoropiperidin-3-yl)amino)pyrimidin-4-yl)pyridin-2-yl)oxy)phenyl)methanesulfonamide] belongs 0.3 nM; to `C[C@H](c1ccccc1)S(=O)(=O)Nc1c(F)cc(Oc2ncccc2-c2ccnc(N[C@@H]3CNC[C@@H](F)C3)n2)c(F)c1F` (single isomer, unassigned) [Compound 388, (*R)-1-phenyl-N-(2,3,6-trifluoro-4-((3-(2-(((3S,5S)-5-fluoropiperidin-3-yl)amino)pyrimidin-4-yl)pyridin-2-yl)oxy)phenyl)ethane-1-sulfonamide], 0.8 nM.
To `O=S(=O)(Cc1ccccc1F)Nc1c(F)cc(Oc2ncccc2-c2ccnc(N[C@@H]3CNC[C@@H](F)C3)n2)c(F)c1F` [Compound 355, 1-(2-Fluorophenyl)-N-[2,3,6-trifluoro-4-[[3-[2-[[(3S,5S)-5-fluoro-3-piperidyl]amino]pyrimidin-4-yl]-2-pyridyl]oxy]phenyl]methanesulfonamide] belongs 0.2 nM.
Regarding `CCCS(=O)(=O)Nc1cc(F)c(Oc2ncccc2-c2ccnc(N[C@H]3CC[C@H](N)CC3)n2)c(F)c1` [Compound 122, N-(4-((3-(2-(((1r,4r)-4-aminocyclohexyl)amino)pyrimidin-4-yl)pyridin-2-yl)oxy)-3,5-difluorophenyl)propane-1-sulfonamide hydrochloride], the IC50 worked out at 20 nM.
To `Cc1ccc(CS(=O)(=O)Nc2c(C)cc(Oc3ncccc3-c3ccnc(N[C@@H]4CNC[C@@](C)(F)C4)n3)c(F)c2F)cc1` [Compound 305, N-(2,3-Difluoro-4-((3-(2-(((3S,5S)-5-fluoro-5-methylpiperidin-3-yl)amino)pyrimidin-4-yl)pyridin-2-yl)oxy)-6-methylphenyl)-1-(p-tolyl)methanesulfonamide] belongs 0.21 nM.
Regarding `CCC(F)(F)CS(=O)(=O)Nc1c(F)cc(Oc2ncccc2-c2ccnc(N[C@@H]3CNC[C@@H](F)C3)n2)c(F)c1F` [Compound 189, 2.2-difluoro-N-(2,3,6-trifluoro-4-((3-(2-(((3S,5S)-5-fluoro-3-piperidyl)amino)pyrimidin-4-yl)-2-pyridyl)oxy)phenyl)butane-1-sulfonamide], the IC50 was found to be 5 nM.
Molecule `N#Cc1ccc(S(=O)(=O)Nc2ccc(Oc3ncccc3-c3ccnc(N[C@H]4CCCNC4)n3)c(F)c2F)cc1` [Compound 219, (S)-4-cyano-N-(2,3-difluoro-4-((3-(2-(piperidin-3-ylamino)pyrimidin-4-yl)pyridin-2-yl)oxy)phenyl)benzenesulfonamide] displayed an IC50 of 53 nM.
In turn, `N[C@H]1CC[C@H](Nc2nccc(-c3cccnc3Oc3ccc(NS(=O)(=O)Cc4ccccc4)c(F)c3F)n2)CC1` [Compound 169, N-(4-((3-(2-(((1r,4r)-4-Aminocyclohexyl)amino)pyrimidin-4-yl)pyridin-2-yl)oxy)-2,3-difluorophenyl)-1-phenylmethanesulfonamide] yielded an IC50 of 4.1 nM.

In general, IC50 refers to the concentration at which inhibition is half-maximal. Read a high IC50 as weaker potency.

(Values after patent US12071425B2 (Genentech, Inc., priority 2018, dated 2024).)
